In ChEMBL document CHEMBL1136823, “Lead discovery of alpha,beta-unsaturated sulfones from a combinatorial library as inhibitors of inducible VCAM-1 expression” (Bioorg Med Chem Lett, 2003):

Experiment: In vitro inhibition of inducible vascular cell adhesion molecule-1 (VCAM-1) expression in Human aortic endothelial cells (HAEC); call rule not given here
Type: functional, cell-based

SMILES	IC50
CC(=O)OCCS(=O)(=O)c1ccccc1	12 µM
CCCCC/C=C/C(=O)OCCS(=O)(=O)c1ccccc1	17 µM
CCCCCCC/C=C/C(=O)Nc1cccc(S(=O)(=O)CCO)c1	23 µM
CC(=O)OCCS(=O)(=O)c1cccc(N)c1	10 µM
CCCCCC#CC(=O)OCCS(=O)(=O)c1cccc(N)c1	6 µM
O=S1(=O)C=Cc2ccccc21	4 µM
C=CS(=O)(=O)c1ccccc1 [(ETHENYLSULFONYL)BENZENE]	2 µM
CC(=O)Nc1cccc(S(=O)(=O)CCOC(C)=O)c1	4 µM
C=CS(=O)(=O)c1cccc(NCCCCCCCC)c1	29 µM
C=CC(=O)OCCS(=O)(=O)c1ccccc1	7 µM
C=CS(C)(=O)=O	14 µM
CCCCCCC/C=C/C(=O)OCCS(=O)(=O)c1cccc(N)c1	28 µM
O=S(=O)(CCCl)c1ccccc1	2 µM
CCCCC/C=C/C(=O)OCCS(=O)(=O)c1cccc(N)c1	17 µM
CCCCCC#CC(=O)Nc1cccc(S(=O)(=O)CCO)c1	20 µM

Experiment: In vitro inhibition of inducible vascular cell adhesion molecule-1 (VCAM-1) expression in Human aortic endothelial cells (HAEC); NE denotes no effect
Type: functional, cell-based

SMILES	IC50
COC(=O)CS(=O)(=O)c1ccccc1	Not Active
O=C1c2ccccc2C(=O)N1CCS(=O)(=O)c1ccccc1	Not Active
CCCCCCCCNc1cccc(S(=O)(=O)CCOC(C)=O)c1	Not Active
O=S(=O)(c1ccccc1)c1ccsc1	Not Active
CCCOCCS(=O)(=O)c1cccc(N)c1	Not Active
O=S(=O)(c1ccccc1)c1cccs1	Not Active
CCN(CC)CCS(=O)(=O)c1ccccc1	Not Active
C=C[S+]([O-])c1ccccc1 (configuration not stated)	Not Active
CCCNc1cccc(S(=O)(=O)CCOC(C)=O)c1	Not Active
Nc1cccc(S(=O)(=O)CCO)c1	Not Active
C=CCCS(=O)(=O)c1ccccc1	Not Active
O=S(=O)(CCNCc1ccccc1)c1ccccc1	Not Active
CCS(=O)(=O)c1ccccc1	Not Active
CCCCCCCCOCCS(=O)(=O)c1ccccc1	Not Active
CCOCCS(=O)(=O)c1ccccc1	Not Active
CC(=O)CCCS(=O)(=O)c1ccccc1	Not Active
CCOC(=O)CNCCS(=O)(=O)c1ccccc1	Not Active
